From patent US20110092448A1, “Peptide Conjugate for Oral Delivery of Hydrophilic Peptide Analgesics” (METABOLIC PHARMACEUTICALS LIMITED, priority 2005, published 2011) come the findings set out here.

Data set [1] concerns neuronal nicotinic acetylcholine receptor. The format is cell-based, bovine.
The subject of data set [2] is chronic neuropathy (CCI) in Sprague-Dawley rats. The following applies: rat, in vivo.
The conditions of data set [3]: rat, in vivo.
For data set [4], the system named is STZ diabetic Sprague-Dawley rats with neuropathic pain. The conditions noted are these: rat, in vivo.

Read-outs that look alike come from different tables or passages of the source.

As to `CC[C@H](C)[C@@H]1NC(=O)[C@H](CCC(=O)O)NC(=O)[C@@H]2CCCN2C(=O)[C@H](Cc2cnc[nH]2)NC(=O)[C@H](CC(=O)O)NC(=O)[C@H](Cc2ccc(O)cc2)NC(=O)[C@H](CC(N)=O)NC(=O)[C@@H]2CSSC[C@H](NC(=O)CN)C(=O)N[C@@H](CSSC[C@@H](C(N)=O)NC1=O)C(=O)N[C@@H](CO)C(=O)N[C@@H](CC(=O)O)C(=O)N1CCC[C@H]1C(=O)N[C@@H](CCCNC(=N)N)C(=O)N2` [ACV1, Gly-Cys-Cys-Ser-Asp-Pro-Arg-Cys-Asn-Tyr-Asp-His-Pro-Glu-Ile-Cys-NH2], the “catecholamine release in response to nicotine” value in data set [1] is reported as “decreased catecholamine release”. Also, the “analgesic effect (relieving pain)” value in data set [2] is given as “not effective”; in data set [2] (po), “not effective”; in data set [2] (sc), “effective”. For the same compound, the “oral availability compared with subcutaneous (plasma concentrations)” value in data set [3] is 1-2%.

For the compound “Ac-Tyr-Leu-Arg-Ile-Val-Gly-Cys-Cys-Ser-Asp-Pro-Arg-Cys-Asn-Tyr-Asp-His-Pro-Glu-Ile-Cys-NH2 (Ac-YLRIVGCCSDPRCNYDHPEIC-NH2; cysteine pairing not given here) [ACV3]”, the “catecholamine release in response to nicotine” value in data set [1] is reported as “decreased catecholamine release”. In addition, in data set [2] (2 mg/kg), the “analgesic effect vs vehicle group” value is “significant difference” and the “withdrawal threshold after one hour” value is reported as “increase in withdrawal threshold”. In addition, the relative oral availability in data set [4] is 30-70%. Besides, in data set [4] (po), the “minimum dose for maximal activity” value is roughly 0.3 mg/kg and the “oral absorption (time profile of effect)” value is on record as “rapid”. The “minimum dose for maximal activity” value in data set [4] (sc) is listed as roughly 0.3 mg/kg.
